The values that follow come from US11939314B2, “Quinolin-2-one derivatives” (MERCK PATENT GMBH, priority 2016, dated 2024).

Structures are written as SMILES.

One test has as its target T1, c-Kit(V654A) (Homo sapiens, UniProt P10721, V654A).
T1 construct: amino acids 544-end containing the V654A mutation; GST (N)
Kind of test: c-Kit(V654A) assay. Type of test: biochemical. Conditions: recombinant human c-Kit aa 544-end, 200 μM ATP, 1.4E-06 means 1.4×10^−6, read-out: Inhibition (IC50) of c-KIT (V654A). The method in brief:
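Radiometric filter-binding read-out: substrate 33P incorporation counted by scintillation after P30 filtermat washes in 75 mM phosphoric acid and methanol. Enzyme: N-GST recombinant human c-Kit aa 544-end carrying V654A.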

The target in the next test is T2, PDGFRalpha(V561D) (Homo sapiens, UniProt P16234, V561D).
T2 construct: recombinant human PDGFRalpha, amino acids 550end containing the V561 D mutation; 6His (N)
Kind of test: PDGFRalpha(V561D) assay. Type of test: biochemical. Conditions: recombinant human PDGFRalpha aa 550-end, 200 μM ATP, 1.4E-06 means 1.4×10^−6, read-out: Inhibition (IC50) of PDGFRα (V561D). The method, then: PDGFRalpha(V561D) (N-terminal 6His-tagged, recombinant human PDGFRalpha, amino acids 550end containing the V561 D mutation) is incubated with 8 mM MOPS pH 7.0, 0.2 mM EDTA, 250 μM GGMEDIYEFMGGKKK, 10 mM MgAcetate and [gamma-33P-ATP] (specific activity approx. 500 cpm/pmol, concentration 200 μM). The reaction is initiated by the addition of the MgATP mix. After incubation for 40 minutes at room temperature, the reaction is stopped by the addition of 3% phosphoric acid solution. 10 μL of the reaction is then spotted onto a P30 filtermat and washed three times for 5 minutes in 75 mM phosphoric acid and once in methanol prior to drying and scintillation counting.

T1 sequence (P10721 544-976 V654A): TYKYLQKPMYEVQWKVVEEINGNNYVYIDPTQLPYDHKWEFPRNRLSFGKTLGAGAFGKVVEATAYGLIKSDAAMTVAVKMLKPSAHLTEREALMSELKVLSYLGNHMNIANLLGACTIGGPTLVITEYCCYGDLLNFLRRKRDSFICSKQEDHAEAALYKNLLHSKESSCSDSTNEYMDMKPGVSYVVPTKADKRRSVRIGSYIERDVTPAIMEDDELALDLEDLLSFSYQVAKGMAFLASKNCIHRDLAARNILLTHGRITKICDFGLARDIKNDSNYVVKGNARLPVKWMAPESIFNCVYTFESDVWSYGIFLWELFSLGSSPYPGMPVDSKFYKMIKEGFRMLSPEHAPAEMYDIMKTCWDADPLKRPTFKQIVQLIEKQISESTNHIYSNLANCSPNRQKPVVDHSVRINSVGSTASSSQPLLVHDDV
T2 sequence (P16234 550-1089 V561D): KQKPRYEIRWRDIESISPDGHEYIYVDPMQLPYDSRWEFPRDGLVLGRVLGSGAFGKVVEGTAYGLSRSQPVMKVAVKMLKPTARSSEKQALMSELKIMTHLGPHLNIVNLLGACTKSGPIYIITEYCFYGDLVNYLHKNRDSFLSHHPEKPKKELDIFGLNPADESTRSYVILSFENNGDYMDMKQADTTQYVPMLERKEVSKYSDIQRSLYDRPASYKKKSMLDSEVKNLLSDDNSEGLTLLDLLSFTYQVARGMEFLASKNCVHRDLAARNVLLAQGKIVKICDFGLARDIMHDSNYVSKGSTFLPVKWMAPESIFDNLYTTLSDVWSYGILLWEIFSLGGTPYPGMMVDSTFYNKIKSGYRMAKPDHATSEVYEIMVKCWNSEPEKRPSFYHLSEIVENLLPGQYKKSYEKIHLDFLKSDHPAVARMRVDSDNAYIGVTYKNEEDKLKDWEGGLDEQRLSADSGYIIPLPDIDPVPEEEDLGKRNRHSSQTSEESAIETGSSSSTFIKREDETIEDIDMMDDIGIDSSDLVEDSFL

Take `COCC1CCCN1C(=O)c1ccc(-n2cc(-c3cc4cc(F)ccc4[nH]c3=O)nn2)cc1` (stereo in doubt) [A198, 6-fluoro-3-{1-[4-((R)-2-methoxymethyl-pyrrolidine-1-carbonyl)-phenyl]-1H-[1,2,3]triazol-4-yl}-1H-quinolin-2-one]: the results for the half-inhibitory concentration (IC50) at c-Kit(V654A) and at PDGFRalpha(V561D) were 30 nM and 200 nM, respectively.

As to `COC(=O)c1cc(-n2cc(-c3cc4ccccc4[nH]c3=O)nn2)ccn1` [A17, 4-[4-(2-oxo-1,2-dihydro-quinolin-3-yl)-[1,2,3]triazol-1-yl]-pyridine-2-carboxylic acid methyl ester], the figures for the concentration for half-maximal inhibition (IC50) on c-Kit(V654A) and on PDGFRalpha(V561D) were 290 nM and 67 nM, respectively.

Regarding `CO[C@@H]1C[C@@H](CO)N(C(=O)c2ccc(-n3cc(-c4cc5cc(Cl)ccc5[nH]c4=O)nn3)cc2)C1` [A248, 6-chloro-3-{1-[4-((2S,4R)-2-hydroxymethyl-4-methoxy-pyrrolidine-1-carbonyl)-phenyl]-1H-[1,2,3]triazol-4-yl}-1H-quinolin-2-one], the figures for the half-inhibitory concentration (IC50) at c-Kit(V654A) and at PDGFRalpha(V561D) were 35 nM and 45 nM, respectively.

For the molecule `Cc1ccc2[nH]c(=O)c(-c3cn(-c4ccc(C(=O)N5CCNCC5)cc4)nn3)cc2c1` [A137, 6-methyl-3-{1-[4-(piperazine-1-carbonyl)-phenyl]-1H-[1,2,3]triazol-4-yl}-1H-quinolin-2-one], the IC50 at c-Kit(V654A) worked out at 40 nM; at PDGFRalpha(V561D), 42 nM.

For the molecule `COCCO[C@H]1CCN(C(=O)c2ccc(-n3cc(-c4cc5cc(Cl)ccc5[nH]c4=O)nn3)cc2)C1` [A259, 6-chloro-3-(1-{4-[(S)-3-(2-methoxy-ethoxy)-pyrrolidine-1-carbonyl]-phenyl}-1H-[1,2,3]triazol-4-yl)-1H-quinolin-2-one], the IC50 on c-Kit(V654A) came to 57 nM; at PDGFRalpha(V561D), 8.4 nM.

For the molecule `CN1CCN(C(=O)c2ccc(-n3cc(-c4cc5cc(F)c(F)cc5[nH]c4=O)nn3)cc2)CC1` [A157, 6,7-difluoro-3-{1-[4-(4-methyl-piperazine-1-carbonyl)-phenyl]-1H-[1,2,3]triazol-4-yl}-1H-quinolin-2-one], the IC50 came out at 5.9 nM on c-Kit(V654A) and 0.32 nM on PDGFRalpha(V561D).

For `O=C(c1ccc(-n2cc(-c3cc4cc(F)ccc4[nH]c3=O)nn2)cc1)N1CCCCC12COC2` [A245, 6-fluoro-3-{1-[4-(2-oxa-5-aza-spiro[3.5]nonane-5-carbonyl)-phenyl]-1H-[1,2,3]triazol-4-yl}-1H-quinolin-2-one], the IC50 at c-Kit(V654A) was found to be 65 nM; at PDGFRalpha(V561D), 470 nM.

As to `COc1ccc(-n2cc(-c3cc4ccccc4[nH]c3=O)nn2)cc1` [A10, 3-[1-(4-methoxy-phenyl)-1H-[1,2,3]triazol-4-yl]-1H-quinolin-2-one], the values for the IC50 on c-Kit(V654A) and at PDGFRalpha(V561D) were 82 nM and 32 nM, respectively.

`O=C(c1ccc(-n2cc(-c3cc4c(F)cc(F)cc4[nH]c3=O)nn2)cc1)N1CCC(N2CCCC2)C1` (centres unmarked) [A105, 3-{1-[4-([1,3′]bipyrrolidinyl-1′-carbonyl)-phenyl]-1H-[1,2,3]triazol-4-yl}-5,7-difluoro-1H-quinolin-2-one]: the IC50 on c-Kit(V654A) worked out at 9.7 nM; at PDGFRalpha(V561D), 340 nM.

Turning to `COC1CCN(C(=O)c2ccc(-n3cc(-c4cc5cc(F)c(F)cc5[nH]c4=O)nn3)cc2)CC1` [A191, 6,7-difluoro-3-{1-[4-(4-methoxy-piperidine-1-carbonyl)-phenyl]-1H-[1,2,3]triazol-4-yl}-1H-quinolin-2-one], the 50% inhibitory concentration (IC50) at c-Kit(V654A) is 15 nM; at PDGFRalpha(V561D) it was 240 nM.

Regarding `CN1CCC(C(=O)c2ccc(-n3cc(-c4cc5cc(F)ccc5[nH]c4=O)nn3)cc2)CC1` [A161, 6-fluoro-3-{1-[4-(1-methyl-piperidine-4-carbonyl)-phenyl]-1H-[1,2,3]triazol-4-yl}-1H-quinolin-2-one], the IC50 at c-Kit(V654A) amounted to 35 nM; on PDGFRalpha(V561D), 15 nM.

`CN1CCN(CCCOc2ccc(-n3cc(-c4cc5cc(F)c(F)cc5[nH]c4=O)nn3)cc2)CC1` [A162, 6,7-difluoro-3-(1-{4-[3-(4-methyl-piperazin-1-yl)-propoxy]-phenyl}-1H-[1,2,3]triazol-4-yl)-1H-quinolin-2-one]: the IC50 on c-Kit(V654A) came to 82 nM; at PDGFRalpha(V561D), 97 nM.

As to `O=C(c1ccc(-n2cc(-c3cc4cc(F)ccc4[nH]c3=O)nn2)cc1)N1CCNCC1` [A53, 6-fluoro-3-{1-[4-(piperazine-1-carbonyl)-phenyl]-1H-[1,2,3]triazol-4-yl}-1H-quinolin-2-one], the values for the IC50 at c-Kit(V654A) and at PDGFRalpha(V561D) were 11 nM and 9 nM, respectively.

For `COCC1CCN(C(=O)c2ccc(-n3cc(-c4cc5cc(F)ccc5[nH]c4=O)nn3)cc2)C1` (centres unmarked) [A106, 6-fluoro-3-{1-[4-(3-methoxymethyl-pyrrolidine-1-carbonyl)-phenyl]-1H-[1,2,3]triazol-4-yl}-1H-quinolin-2-one], the concentration for half-maximal inhibition (IC50) at c-Kit(V654A) was found to be 9.1 nM; at PDGFRalpha(V561D), 0.9 nM.

For `CO[C@@H]1CC[C@H](Oc2ccc(-n3cc(-c4cc5cc(Cl)ccc5[nH]c4=O)nn3)cc2)C1` (stereo in doubt) [A356, 6-chloro-3-{1-[4-((1S,3R)-3-methoxy-cyclopentyloxy)-phenyl]-1H-[1,2,3]triazol-4-yl}-1H-quinolin-2-one], the IC50 is 96 nM at c-Kit(V654A) and 150 nM on PDGFRalpha(V561D).

On to `CN1CC[C@@H](Oc2ccc(-n3cc(-c4cc5cc(F)ccc5[nH]c4=O)nn3)cc2)C1` [A367, 6-fluoro-3-{1-[4-((R)-1-methyl-pyrrolidin-3-yloxy)-phenyl]-1H-[1,2,3]triazol-4-yl}-1H-quinolin-2-one], for which the IC50 was found to be 19 nM on c-Kit(V654A) and 70 nM at PDGFRalpha(V561D).

For `O=C(c1ccc(-n2cc(-c3cc4ccc(Cl)cc4[nH]c3=O)nn2)cc1)N1CCNCC1` [A126, 7-chloro-3-{1-[4-(piperazine-1-carbonyl)-phenyl]-1H-[1,2,3]triazol-4-yl}-1H-quinolin-2-one], the 50% inhibitory concentration (IC50) at c-Kit(V654A) came out at 19 nM; on PDGFRalpha(V561D) it was 42 nM.

Consider `CO[C@@H]1CCN(C(=O)c2ccc(-n3cc(-c4cc5cc(F)c(F)cc5[nH]c4=O)nn3)cc2)C1` [A113, 6,7-difluoro-3-{1-[4-((R)-3-methoxy-pyrrolidine-1-carbonyl)-phenyl]-1H-[1,2,3]triazol-4-yl}-1H-quinolin-2-one], for which the IC50 at c-Kit(V654A) was 8.6 nM; on PDGFRalpha(V561D), 36 nM.

On to `O=C(NC1COC1)c1ccc(-n2cc(-c3cc4cc(F)ccc4[nH]c3=O)nn2)cc1` [A232, 4-[4-(6-fluoro-2-oxo-1,2-dihydro-quinolin-3-yl)-[1,2,3]triazol-1-yl]-N-oxetan-3-yl-benzamide], for which the half-inhibitory concentration (IC50) at c-Kit(V654A) is 160 nM; on PDGFRalpha(V561D), 980 nM.

`CO[C@H]1CCN(C(=O)c2ccc(-n3cc(-c4cc5cc(F)ccc5[nH]c4=O)cn3)cc2)C1` [A297, 6-fluoro-3-{1-[4-((S)-3-methoxy-pyrrolidine-1-carbonyl)-phenyl]-1H-pyrazol-4-yl}-1H-quinolin-2-one]: the figures for the 50% inhibitory concentration (IC50) at c-Kit(V654A) and at PDGFRalpha(V561D) were 66 nM and 240 nM, respectively.

As to `CN(C)C1CCN(C(=O)c2ccc(-n3cc(-c4cc5cc(F)c(F)cc5[nH]c4=O)nn3)cc2)CC1` [A171, 3-{1-[4-(4-dimethylamino-piperidine-1-carbonyl)-phenyl]-1H-[1,2,3]triazol-4-yl}-6,7-difluoro-1H-quinolin-2-one], the results for the IC50 on c-Kit(V654A) and on PDGFRalpha(V561D) were 17 nM and 190 nM, respectively.

`O=C(c1ccc(-n2cc(-c3cc4cc(F)cnc4[nH]c3=O)nn2)cc1)N1CCNCC1` [A122, 6-fluoro-3-{1-[4-(piperazine-1-carbonyl)-phenyl]-1H-[1,2,3]triazol-4-yl}-1H-[1,8]naphthyridin-2-one]: the IC50 is 73 nM at c-Kit(V654A) and 5 nM at PDGFRalpha(V561D).
